Test results from patent US7122353B2, “Targeted carrier fusions for delivery of chemotherapeutic agents” (Wisconsin Alumni Research Foundation, priority 2003, dated 2006).
Counter-ions that a name gives are not always drawn. Numbered stars: 1 amine (or outer) side, 2 acyl side, 3 side chain; on linkers, the order of the positions; unused ones are H or OH. Bridge positions count the residues as written; N and C are the ends. Square brackets hold non-standard residues; d marks the D form. Peptide text beside a SMILES is read from it. I, II: the chains in the order shown. Actinocin(9to1) = Cc1c2oc3c(C)ccc(C(=O)[*:1])c3nc-2c(C(=O)[*:2])c(N)c1=O; NMeV = CN[C@H](C(=O)O)C(C)C; Sar = CNCC(=O)O

Tests used:
[1] = cited from earlier work
prostates cancers = conditions: mouse, in vivo; cited from earlier work
[2] = test system: cancer cell lines (WM115, KS1617); experiment: Fluorescence imaging of binding of IC3-OSu-labeled carrier proteins to cancer cells; assay type: cell-based; conditions: 100 μl of 0.1 mg/ml labeled protein, about 10 min, room temperature, washed 3 times with PBS
Description: WM115 (high-level expression of αvβ3 integrin) and MCF7 (low level expression of αvβ3 integrin, about 10% of WM115) cell lines were grown in α MEM medium enriched with 10% fetal bovine serum (FBS) and 60 μg/ml of penicillin and 100 μg/ml of streptomycin. KS1617 cell line (high-level expression of CD13) was grown in RPMI1640 medium also enriched with 10% FBS and 60 μg/ml of penicillin and 100 μg/ml of streptomycin. The cell cultures were passed to fresh medium every 2–3 days. For fluorescent imaging, the cells were grown in 4-well culture slides to about 70% confluence before use.
To facilitate detection, the recombinant CTP-containing carrier proteins were labeled with Dojindo IC3-Osu, which reacts with lysine residues of the protein, according to the recommended protocols by the manufacturer (Dojindo, Gaithersburg, Md.) (FIG. 5). About 0.5 mg/ml protein was reacted with 3-fold excess of the fluorescent dye in dark at room temperature for 1 hr, and the extra dye was removed using Bio-Rad Econo-Pac desalting column. The labeling efficiency was measured using UV-vis spectroscopy. On average, about 25–35% of protein molecules were labeled.
The binding specificity between CTP-containing carrier proteins and various cancer cell lines was evaluated with both the native carrier proteins and normal cell lines as negative controls. […]

Molecule: CC[C@]1(O)C[C@@H]2CN(CCc3c([nH]c4ccccc34)[C@@](C(=O)OC)(c3cc4c(cc3OC)N(C)[C@H]3[C@@](O)(C(=O)OC)[C@H](OC(C)=O)[C@]5(CC)C=CCN6CC[C@]43[C@@H]65)C2)C1 [Vinblastine]
- plasma half-life after distribution (first value) ([1]; after intravenous injection): approximately 1 hours
- plasma half-life after distribution (second value) ([1]; after intravenous injection): ~20 h

Molecule: SMSIARL [cancer-targeting peptide for prostate cancer]
- targeting to prostates cancers relative to other organs (prostates cancers): 10–15 times

Molecule: Cc1c2oc3c(C)ccc(C(=O)N[C@@H]4C(=O)N[C@H](C(C)C)C(=O)N5CCC[C@H]5C(=O)N(C)CC(=O)N(C)[C@@H](C(C)C)C(=O)O[C@@H]4C)c3nc-2c(C(=O)N[C@@H]2C(=O)N[C@H](C(C)C)C(=O)N3CCC[C@H]3C(=O)N(C)CC(=O)N(C)[C@@H](C(C)C)C(=O)O[C@@H]2C)c(N)c1=O [Actinomycin D] (I: T[dV]P[Sar][NMeV] / II: T[dV]P[Sar][NMeV]; ester I:1-I:C, II:1-II:C; linker I:N-II:N via Actinocin(9to1))
- part of the dose excreted intact into the bile ([1]; in vivo): Half of the dose

Molecule: COc1cccc2c1C(=O)c1c(O)c3c(c(O)c1C2=O)C[C@@](O)(C(C)=O)C[C@@H]3O[C@H]1C[C@H](N)[C@H](O)[C@H](C)O1 [Daunorubicin, 5,12-Naphthacenedione, (8S-cis)-8-acetyl-10-((3-amino-2,3,6-trideoxy-a-L-lyxo-hexanopyranosyl)oxy)-7,8,9,10-tetrahydro-6,8,11-trihydroxy-10-methoxy-, hydrochloride]
- secreted into the bile ([1]; in vivo): about 40%

B1: native CagA: His-tagged native C-1027 apo-protein encoded by the cagA gene of Streptomyces globisporus; negative control (protein)
chain: APAFSVSPASGLSDGQSVSVSVSGAAAGETYYIAQCAPVGGQDACNPATATSFTTDASGAASFSFVVRKSYTGSTPEGTPVGSVDCATAACNLGAGNSGLDLGHVALTFG
modifications: left off: small tags and cut ends
notes: His-tagged native C-1027 apo-protein encoded by the cagA gene of Streptomyces globisporus; negative control
- fluorescence detected on cells after incubation with labeled protein [2]: no significant fluorescence

B2: native NcsA: His-tagged native neocarzinostatin apo-protein encoded by the ncsA gene of Streptomyces carzinostaticus; negative control (protein)
chain: AAPTATVTPSSGLSDGTVVKVAGAGLQAGTAYDVGQCAWVDTGVLACNPADFSSVTADANGSASTSLTVRRSFEGFLFDGTRWGTVDCTTAACQVGLSDAAGNGPEGVAISFN
modifications: left off: small tags and cut ends
notes: His-tagged native neocarzinostatin apo-protein encoded by the ncsA gene of Streptomyces carzinostaticus; negative control
- fluorescence detected on cells after incubation with labeled protein [2]: no significant fluorescence
